Measurements: US11952388B2, “Crystal form of tri-cycle compound and application thereof” (FUJIAN AKEYLINK BIOTECHNOLOGY CO., LTD., priority 2018, dated 2024)
pIC50: −log10 of the molar value.

Key:
Assay type in all cases: in vitro ADME
[1] = tested on: proteins in human plasma; test: Plasma protein binding rate (equilibrium dialysis)
Experimental: Objectives of Experiment: to determine the binding rate of test compound to proteins in human and CD-1 mouse plasma
Experimental operation: 796 μL of blank plasma was taken from human and CD-1 mouse, and 4 μL of test compound working solution (400 μM) or warfarin working solution (400 μM) was added to make the final concentrations of both test compound and warfarin in the plasma sample 2 μM. The sample was mixed thoroughly. The final concentration of DMSO in the organic phase was 0.5%; 50 μt of plasma samples of test compound and warfarin was pipetted into the sample receiving plate (in triplicate), and immediately the corresponding volume of blank plasma or buffer was added to make the final volume of each sample 100 μL and the volume ratio of plasma:dialysis buffer 1:1. Then 400 μL of stop solution is added to these samples. These samples would be used as TO samples for determination of recovery and stability. […] All samples were analyzed by LC/MS/MS after protein precipitation, and the protein binding rate and recovery rate was calculated with the formula: % Unbound (unbound rate)=100*FC/TC, % Bound (bound rate)=100-% Unbound, % Recovery (recovery rate)=100*(FC+TC)/T0.

[2] = target: T1, CYP2D6 (Homo sapiens, UniProt P10635); test: Inhibition of human liver microsomal cytochrome P450 isoenzymes; settings: human liver microsomes
T1 construct: from tissue; host or cells: human liver microsomes
T1 sequence (P10635 whole entry): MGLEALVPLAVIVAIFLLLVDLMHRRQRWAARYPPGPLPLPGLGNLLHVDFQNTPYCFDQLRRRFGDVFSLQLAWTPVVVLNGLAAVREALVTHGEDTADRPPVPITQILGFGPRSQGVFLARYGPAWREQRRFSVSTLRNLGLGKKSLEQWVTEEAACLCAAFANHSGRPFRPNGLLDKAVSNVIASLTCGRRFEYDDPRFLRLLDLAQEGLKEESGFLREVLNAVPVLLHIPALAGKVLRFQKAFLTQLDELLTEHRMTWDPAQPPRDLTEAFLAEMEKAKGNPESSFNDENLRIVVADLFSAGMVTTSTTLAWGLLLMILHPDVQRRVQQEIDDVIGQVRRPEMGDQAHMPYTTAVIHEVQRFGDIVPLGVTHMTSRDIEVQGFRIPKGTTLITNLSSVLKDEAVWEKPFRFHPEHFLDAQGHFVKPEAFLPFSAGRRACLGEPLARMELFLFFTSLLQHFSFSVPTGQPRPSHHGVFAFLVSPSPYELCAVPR
Experimental: (§1) Objectives of experiment: To determine the inhibitory effect of the test compound on the activity of human liver microsomal cytochrome P450 isoenzymes (CYP1A2, CYP2C9, CYP2C19, CYP2D6 and CYP3A4). Experimental operation: First, the test compound (10 mM) was diluted in a gradient to prepare the working solutions (100× final concentration). The concentrations of the working solutions were 5, 1.5, 0.5, 0.15, 0.05, 0.015 and 0.005 mM. Meanwhile, the working solutions of mixture (5 in 1) of positive inhibitors of each P450 isoenzyme (CYP1A2, CYP2C9, CYP2C19, CYP2D6 and CYP3A4) and the specific substrate of the isoenzymes were also prepared; the human liver microsomes frozen in the refrigerator at −80° C. were unfrozen on ice. After the human liver microsomes were completely dissolved, they were diluted with PB to prepare a certain concentration (0.253 mg/mL) of working solution; 20 uL of the substrate mixture was added into the reaction plate (20 μl PB was added into the Blank well) as well as 158 μL of human liver microsome working solution, then the reaction plate was placed on ice and set aside; at this time, 2 μL of each concentration of test compound (N=1) and specific inhibitor (N=2) were added to the corresponding well, the group without inhibitor (test compound or positive inhibitor) was added with the corresponding organic solvent as a control sample (the test compound control sample was 1:1 DMSO:MeOH, and the positive control sample was 1:9 DMSO:MeOH); after pre-incubating in a 37° C. water bath for 10 min, the reaction plate was added with 20 μL of coenzyme factor (NADPH) solution and water bathed at 37° C. for 10 min; 400 μL of cold acetonitrile solution (internal standard was 200 ng/mL Tolbutamide and Labetalol) was added to terminate the reaction; the reaction plate was then placed on a shaker and shaken for 10 min, followed by centrifuging at 4,000 rpm for 20 min; 200 μL of supernatant was added to 100 μL of water for sample dilution; finally, the plate was sealed, shaken well, and subjected to LC/MS/MS detection.

[3] = target: T2, CYP2C19 (Homo sapiens, UniProt P33261); test: as above; settings: human liver microsomes
T2 construct: from tissue; host or cells: human liver microsomes
T2 sequence (P33261 whole entry): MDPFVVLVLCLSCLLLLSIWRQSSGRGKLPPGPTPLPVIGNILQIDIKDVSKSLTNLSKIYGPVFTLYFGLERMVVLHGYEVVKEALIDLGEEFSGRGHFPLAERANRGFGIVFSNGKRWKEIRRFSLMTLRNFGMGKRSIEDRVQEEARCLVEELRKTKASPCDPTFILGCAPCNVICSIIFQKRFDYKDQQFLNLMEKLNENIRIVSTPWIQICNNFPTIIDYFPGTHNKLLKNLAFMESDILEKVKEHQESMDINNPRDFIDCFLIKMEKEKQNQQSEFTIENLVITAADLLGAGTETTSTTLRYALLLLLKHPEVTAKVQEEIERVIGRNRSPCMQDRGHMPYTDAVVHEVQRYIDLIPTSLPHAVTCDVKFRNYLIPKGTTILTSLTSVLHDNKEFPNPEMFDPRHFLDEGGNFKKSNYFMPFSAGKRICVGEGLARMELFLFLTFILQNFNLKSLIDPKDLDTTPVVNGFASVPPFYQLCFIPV
Experimental: as §1

[4] = target: T3, CYP1A2 (Homo sapiens, UniProt P05177); test: as above; settings: human liver microsomes
T3 construct: from tissue; host or cells: human liver microsomes
T3 sequence (P05177 1-516): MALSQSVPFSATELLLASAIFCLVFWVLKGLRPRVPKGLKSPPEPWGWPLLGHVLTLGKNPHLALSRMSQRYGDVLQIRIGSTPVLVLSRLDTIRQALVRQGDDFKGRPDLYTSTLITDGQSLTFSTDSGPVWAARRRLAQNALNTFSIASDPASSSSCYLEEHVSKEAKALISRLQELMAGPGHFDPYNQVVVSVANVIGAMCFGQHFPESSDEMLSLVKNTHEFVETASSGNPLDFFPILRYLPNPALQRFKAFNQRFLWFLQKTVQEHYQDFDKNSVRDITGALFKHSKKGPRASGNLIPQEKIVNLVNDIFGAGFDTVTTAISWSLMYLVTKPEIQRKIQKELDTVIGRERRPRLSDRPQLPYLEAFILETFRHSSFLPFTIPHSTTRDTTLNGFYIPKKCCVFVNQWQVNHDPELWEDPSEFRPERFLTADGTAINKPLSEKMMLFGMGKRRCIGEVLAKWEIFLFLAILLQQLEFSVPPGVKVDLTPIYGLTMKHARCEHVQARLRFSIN
Experimental: as §1

[5] = target: T4, CYP2C9 (Homo sapiens, UniProt P11712); test: as above; settings: human liver microsomes
T4 construct: from tissue; host or cells: human liver microsomes
T4 sequence (P11712 whole entry): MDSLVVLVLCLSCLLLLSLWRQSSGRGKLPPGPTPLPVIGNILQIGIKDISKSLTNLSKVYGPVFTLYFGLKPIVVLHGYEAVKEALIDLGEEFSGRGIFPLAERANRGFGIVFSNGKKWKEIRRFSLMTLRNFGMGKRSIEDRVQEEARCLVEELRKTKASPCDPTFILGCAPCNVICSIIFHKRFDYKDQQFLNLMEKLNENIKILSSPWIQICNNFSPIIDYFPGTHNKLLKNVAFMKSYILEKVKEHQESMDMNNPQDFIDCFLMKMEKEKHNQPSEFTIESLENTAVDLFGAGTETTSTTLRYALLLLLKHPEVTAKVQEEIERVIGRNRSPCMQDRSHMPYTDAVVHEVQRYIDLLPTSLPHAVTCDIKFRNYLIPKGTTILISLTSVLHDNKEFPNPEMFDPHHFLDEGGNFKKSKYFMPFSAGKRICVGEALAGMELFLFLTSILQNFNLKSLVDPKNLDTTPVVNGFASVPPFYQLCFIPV
Experimental: as §1

[6] = target: T5, CYP3A4 (Homo sapiens, UniProt P08684); test: as above; settings: human liver microsomes
T5 construct: from tissue; host or cells: human liver microsomes
T5 sequence (P08684 whole entry): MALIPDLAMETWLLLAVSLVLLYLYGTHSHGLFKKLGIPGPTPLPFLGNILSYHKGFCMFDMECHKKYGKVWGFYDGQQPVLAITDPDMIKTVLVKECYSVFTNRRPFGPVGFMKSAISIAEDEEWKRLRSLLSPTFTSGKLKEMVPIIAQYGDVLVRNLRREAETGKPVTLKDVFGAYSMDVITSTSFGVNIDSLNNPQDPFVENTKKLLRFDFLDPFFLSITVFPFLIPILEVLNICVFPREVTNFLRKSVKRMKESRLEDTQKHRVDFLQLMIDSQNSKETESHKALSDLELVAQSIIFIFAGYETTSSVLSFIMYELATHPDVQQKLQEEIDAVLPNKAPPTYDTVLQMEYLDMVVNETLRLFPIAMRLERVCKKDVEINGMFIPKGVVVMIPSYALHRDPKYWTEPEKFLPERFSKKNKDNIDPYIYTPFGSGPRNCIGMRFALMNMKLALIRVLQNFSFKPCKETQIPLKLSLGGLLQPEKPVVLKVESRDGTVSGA
Experimental: as §1

Compound: Cc1cc2n(c1)S(=O)(=O)c1ccc(C(=O)NCC[C@H]3COCCO3)cc1NC2=O [compound represented by formula (I)]
- binding rate to plasma proteins (conclusion in words) [1]: lower binding rate
- Binding rate of plasma protein ([1]; 2 μM): 81%
- pIC50 [2]: < 4.30
- inhibitory effect on CYP2D6 (conclusion in words) [2]: no evident inhibitory effect
- pIC50 [3]: < 4.30
- inhibitory effect on CYP2C19 (conclusion in words) [3]: no evident inhibitory effect
- pIC50 [4]: < 4.30
- inhibitory effect on CYP1A2 (conclusion in words) [4]: no evident inhibitory effect
- pIC50 [5]: < 4.30
- inhibitory effect on CYP2C9 (conclusion in words) [5]: no evident inhibitory effect
- pIC50 [6]: < 4.30
- inhibitory effect on CYP3A4 (conclusion in words) [6]: no evident inhibitory effect
